# Results from PubChem BioAssay AID1963866 (Molecular Pharmacology Branch, DTP, NCI, 2024).
# System: PDC KRAS tumor spheroids with HUVEC/MSC, viability
# Experiment: Anticancer human tumor 349418-098-R-PDC patient-derived lung adenocarcinoma cell line growth inhibition [KRAS2]
# Details: for IC50: curve of first compound; for viability, T/C: stronger effect = lower value
# Method in brief: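 KRAS-mutant tumor cells were grown as spheroids with HUVEC endothelial cells and human MSCs as stroma. Targeted agents were tested alone and with KRAS pathway inhibitors. Doses started at or near clinical Cmax, or 10 microM, descending half-log.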
# [1] = second compound 0.0316 µM, first compound 0.0316 µM
# [2] = second compound 0.0316 µM, first compound 0.1 µM
# [3] = second compound 0.0316 µM, first compound 0.316 µM
# [4] = second compound 0.0316 µM, first compound 1 µM
# [5] = second compound 0.0316 µM, first compound 3.16 µM
# [6] = second compound 0.0316 µM, first compound 10 µM
# [7] = second compound 0.1 µM, first compound 0.0316 µM
# [8] = second compound 0.1 µM, first compound 0.1 µM
# [9] = second compound 0.1 µM, first compound 0.316 µM
# [10] = second compound 0.1 µM, first compound 1 µM
# [11] = second compound 0.1 µM, first compound 3.16 µM
# [12] = second compound 0.1 µM, first compound 10 µM
# [13] = second compound 0.316 µM, first compound 0.0316 µM
# [14] = second compound 0.316 µM, first compound 0.1 µM
# [15] = second compound 0.316 µM, first compound 0.316 µM
# [16] = second compound 0.316 µM, first compound 1 µM
# [17] = second compound 0.316 µM, first compound 3.16 µM
# [18] = second compound 0.316 µM, first compound 10 µM
# [19] = second compound 1 µM, first compound 0.0316 µM
# [20] = second compound 1 µM, first compound 0.1 µM
# [21] = second compound 1 µM, first compound 0.316 µM
# [22] = second compound 1 µM, first compound 1 µM
# [23] = second compound 1 µM, first compound 3.16 µM
# [24] = second compound 1 µM, first compound 10 µM
# [25] = second compound 3.16 µM, first compound 0.0316 µM
# [26] = second compound 3.16 µM, first compound 0.1 µM
# [27] = second compound 3.16 µM, first compound 0.316 µM
# [28] = second compound 3.16 µM, first compound 1 µM
# [29] = second compound 3.16 µM, first compound 3.16 µM
# [30] = second compound 3.16 µM, first compound 10 µM
# [31] = second compound 0.0316 µM, first compound 0.01 µM
# [32] = second compound 0.1 µM, first compound 0.01 µM
# [33] = second compound 0.316 µM, first compound 0.01 µM
# [34] = second compound 1 µM, first compound 0.01 µM
# [35] = second compound 3.16 µM, first compound 0.01 µM
# 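Further: spheroids exposed to compounds for seven days before readout.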
SMILES,IC50 (second compound 0.0316 µM) [nM],IC50 (second compound 0.1 µM) [nM],IC50 (second compound 0.316 µM) [nM],IC50 (second compound 1 µM) [nM],IC50 (second compound 3.16 µM) [nM],"viability, T/C [1] [%]","viability, T/C [2] [%]","viability, T/C [3] [%]","viability, T/C [4] [%]","viability, T/C [7] [%]","viability, T/C [8] [%]","viability, T/C [9] [%]","viability, T/C [10] [%]","viability, T/C [13] [%]","viability, T/C [14] [%]","viability, T/C [15] [%]","viability, T/C [16] [%]","viability, T/C [19] [%]","viability, T/C [20] [%]","viability, T/C [21] [%]",further results
CC(C)NCC(C(=O)N1CCN(c2ncnc3c2C(C)CC3O)CC1)c1ccc(Cl)cc1 (stereo not given) + C=CC(=O)N1CCN(c2nc(OCC3CCCN3C)nc3c2CCN(c2cccc4cccc(C)c24)C3)CC1CC#N,313,254,289,224,< 31.6,95.7,69.4,52.3,30.7,90.8,76.8,42.5,20.9,87.7,77.9,44.7,24.6,79.9,66.1,43.7,"viability, T/C [5]: 16.9%; viability, T/C [6]: 6.91%; viability, T/C [11]: 15.2%; viability, T/C [12]: 7.07%; viability, T/C [17]: 15.7%; viability, T/C [18]: 5.1%; viability, T/C [22]: 19%; viability, T/C [23]: 8.97%; viability, T/C [24]: 4.67%; viability, T/C [25]: 0.14%; viability, T/C [26]: 0.14%; viability, T/C [27]: 0.1%; viability, T/C [28]: 0.23%; viability, T/C [29]: 0.21%; viability, T/C [30]: 0.13%"
CC1COCCN1c1cc(-c2ccnn2C)c2ccnc(-c3ccn[nH]3)c2n1 (stereo not given) + C=CC(=O)N1CCN(c2nc(OCC3CCCN3C)nc3c2CCN(c2cccc4cccc(C)c24)C3)CC1CC#N,29.8,31.1,23.8,< 10,< 10,47.6,9.45,5.83,4.78,49.1,9.48,5.64,4.53,33,5.66,4.96,4.7,4.15,3.41,4.26,"viability, T/C [31]: 94.1%; viability, T/C [5]: 4.54%; viability, T/C [32]: 112%; viability, T/C [11]: 3.65%; viability, T/C [33]: 102%; viability, T/C [17]: 4.39%; viability, T/C [34]: 43.6%; viability, T/C [22]: 3.79%; viability, T/C [23]: 3.79%; viability, T/C [35]: 0.1%; viability, T/C [25]: 0.21%; viability, T/C [26]: 0.07%; viability, T/C [27]: 0.06%; viability, T/C [28]: 0.07%; viability, T/C [29]: 0.12%"
CC1OCC2(CCN(c3cnc(Sc4ccnc(N)c4Cl)c(N)n3)CC2)C1N (stereo not given) + C=CC(=O)N1CCN(c2nc(OCC3CCCN3C)nc3c2CCN(c2cccc4cccc(C)c24)C3)CC1CC#N,> 10000,> 10000,> 10000,6510,< 31.6,122,95.1,92.8,96.8,108,93.6,79.8,89.4,99,112,97.8,98.5,71,69.4,62.9,"viability, T/C [5]: 94.1%; viability, T/C [6]: 68.7%; viability, T/C [11]: 78%; viability, T/C [12]: 83.6%; viability, T/C [17]: 96.8%; viability, T/C [18]: 95.1%; viability, T/C [22]: 58.3%; viability, T/C [23]: 50.2%; viability, T/C [24]: 49.5%; viability, T/C [25]: 0.15%; viability, T/C [26]: 0.15%; viability, T/C [27]: 0.13%; viability, T/C [28]: 0.14%; viability, T/C [29]: 0.14%; viability, T/C [30]: 0.26%"
CCN1CCN(Cc2ccc(Nc3ncc(F)c(-c4cc(F)c5nc(C)n(C(C)C)c5c4)n3)nc2)CC1 + C=CC(=O)N1CCN(c2nc(OCC3CCCN3C)nc3c2CCN(c2cccc4cccc(C)c24)C3)CC1CC#N,4.51,6.76,6,< 3.16,< 3.16,19.3,16.6,14.1,4.49,20.2,15.4,10.2,3.97,15.8,19.1,10.4,2.4,15.2,12.4,8.99,"viability, T/C (second compound 0.0316 µM, first compound 0.00316 µM): 56%; viability, T/C [31]: 37.7%; viability, T/C (second compound 0.1 µM, first compound 0.00316 µM): 80.7%; viability, T/C [32]: 31.3%; viability, T/C (second compound 0.316 µM, first compound 0.00316 µM): 64.8%; viability, T/C [33]: 40.2%; viability, T/C (second compound 1 µM, first compound 0.00316 µM): 46.1%; viability, T/C [34]: 24.9%; viability, T/C [22]: 0.45%; viability, T/C (second compound 3.16 µM, first compound 0.00316 µM): 0.15%; viability, T/C [35]: 0.09%; viability, T/C [25]: 0.07%; viability, T/C [26]: 0.08%; viability, T/C [27]: 0.08%; viability, T/C [28]: 0.19%"
CCNC(=O)CC1N=C(c2ccc(Cl)cc2)c2cc(OC)ccc2-n2c(C)nnc21 (stereo not given) + C=CC(=O)N1CCN(c2nc(OCC3CCCN3C)nc3c2CCN(c2cccc4cccc(C)c24)C3)CC1CC#N,122,95.7,186,47.7,< 31.6,102,50.9,34.2,8.72,93.1,48.1,21.8,9.94,101,70.5,30.6,16.6,62.9,26.6,10.7,"viability, T/C [5]: 1.74%; viability, T/C [6]: 0.85%; viability, T/C [11]: 1.6%; viability, T/C [12]: 0.66%; viability, T/C [17]: 4.31%; viability, T/C [18]: 1.58%; viability, T/C [22]: 4.52%; viability, T/C [23]: 0.59%; viability, T/C [24]: 2.47%; viability, T/C [25]: 0.12%; viability, T/C [26]: 0.1%; viability, T/C [27]: 0.09%; viability, T/C [28]: 0.08%; viability, T/C [29]: 0.08%; viability, T/C [30]: 0.13%"
Cn1nccc1Nc1nccc(-c2cc3c(s2)C(C)(C)N(CCN2CCOCC2)C3=O)n1 + C=CC(=O)N1CCN(c2nc(OCC3CCCN3C)nc3c2CCN(c2cccc4cccc(C)c24)C3)CC1CC#N,44.7,59.7,49.3,< 31.6,< 31.6,57.1,33.1,20.7,8.51,70.2,31.8,21.5,8.37,62.2,31,14.8,9.55,41.5,32.5,13.6,"viability, T/C [5]: 7.52%; viability, T/C [6]: 5.99%; viability, T/C [11]: 7.54%; viability, T/C [12]: 5.51%; viability, T/C [17]: 7.33%; viability, T/C [18]: 4.36%; viability, T/C [22]: 7.03%; viability, T/C [23]: 4.51%; viability, T/C [24]: 3.02%; viability, T/C [25]: 0.13%; viability, T/C [26]: 0.09%; viability, T/C [27]: 0.07%; viability, T/C [28]: 0.07%; viability, T/C [29]: 0.07%; viability, T/C [30]: 0.17%"
